{
  "source": "patent US4968788A",
  "about": "“Biologically reversible phosphate and phosphonate protective gruops” (Board of Regents, The University of Texas System, priority 1989, dated 1990)",
  "key": {"[1]": {"system": "Chinese hamster ovary cells", "assay": "prevention of growth of Chinese hamster ovary cells in culture", "format": "cell-based", "description": "Example 5 was repeated with the R substituent changed to fluorine (i.e., 2',5-dideoxy-5'-iodo-3'-O-acetyl-5-fluorouridine). There was a 15% yield of this product. This composition prevented the growth of Chinese hamster ovary cells in culture at a concentration of 5.0×10^-6 M [5-fluoro-2'-deoxyuridine (5-FUdR) control, 1.0×10^-6 M].\n(§1) was incubated at […] with mouse plasma and hog liver carboxylate esterase."}, "[2]": {"assay": "physchem", "format": "physicochemical", "description": "Several tests have been performed with both types of protected compositions. […] The stabilities of these protected compositions were determined in aqueous buffered solutions having pH ranging from 1 to 10, and also under selected biological conditions. Except for the acetoxymethyl derivatives of the second type, these phosphoesters were relatively stable in a neutral environment. They reverted to their parent compounds in acidic or basic media.\nThe protected product was stable in neutral aprotic solvents such as benzene, diethyl ether and ethyl acetate. […] The half-life was greater than 4 hours.\nThese solutions were analyzed by (HPLC) high performance liquid chromatography (Waters model ALC 204). The disappearance of the bis(acyloxymethyl) phosphate was monitored by reversed-phase chromatography on a column of μ Bondapak-C18 (30 cm×4 mm i.d., 10 μm; Waters Assoc., Milford, Mass.) using solutions of 0.01M potassium phosphate buffer (pH 7.0) with methanol as the mobile phase (typically 25-50% alcohol).\nThe formation of intermediate B and mono(acetoxymethyl) phosphate C was monitored by ion-pair chromatography on μ Bondapak-C using the same buffer system as described above, except that tetrabutylammonium hydroxide was added to a concentration 2×10^-3 M, or by anion-exchange chromatography on a column of Partisil SAX (25 cm×4.6 mm i.d., 10 μm; Whatman) using a linear gradient of 0.01-0.1M potassium phosphate buffer (pH 6.5) as an eluent. The flow rates for these analyses and the ones described above ranged from 1.0 to 2.0 ml/min. The column effluents were monitored at 254 nm with a Schoeffel model 450 UV detector, and the concentrations were determined by comparison of the peak areas with those of reference standards."}, "[3]": {"assay": "degradation on incubation with mouse plasma", "format": "in vitro ADME", "description": "(§2) (At appropriate intervals, aliquots (100 μl) of the incubation mixtures were diluted with 3 volumes of methanol and then agitated for 1 minute on a Vortex shaker. The precipitated protein was separated by centrifugation at 10,000×g for 5 minutes, and the supernatants were analyzed by HPLC as described above.)\nas §1"}, "[4]": {"assay": "degradation on incubation with hog liver carboxylate esterase", "format": "in vitro ADME", "details": "pig, liver carboxylate esterase; 65 micrograms per milliliter, 37° C., pH 7.4, 8 milligrams protein per milliliter", "description": "as §2, §1"}, "[5]": {"system": "hog liver carboxylate esterase", "assay": "degradation on incubation with hog liver carboxylate esterase", "format": "in vitro ADME", "description": "as §2, §1"}, "[6]": {"system": "P388 leukemia which is resistant to 5-fluorouracil", "assay": "activity against P388 leukemia resistant to 5-fluorouracil", "details": "P388 resistant to 5-fluorouracil"}, "[7]": {"details": "65 micrograms per milliliter, 37° C., 0.05M potassium phosphate buffer (pH 7.4), mouse plasma 50% by volume"}},
  "data": [
    {"smiles": "O=c1[nH]c(=O)n([C@H]2C[C@H](O)[C@@H](CO)O2)cc1F", "note": "[Example 5-FUdR, 5-fluoro-2'-deoxyuridine, reference compound]", "values": [
      {"measurement": "minimal effective concentration", "setting": "[1]; Cricetulus griseus, read-out: concentration that prevented the growth of Chinese hamster ovary cells", "value": 1, "unit": "µM"}
    ]},
    {"smiles": "CC(=O)O[C@H]1C[C@H](n2cc(F)c(=O)[nH]c2=O)O[C@@H]1COP(=O)(OCOC(=O)C(C)(C)C)OCOC(=O)C(C)(C)C", "note": "[Example 6]", "values": [
      {"measurement": "concentration that prevented the growth of Chinese hamster ovary cells", "setting": "[1]", "value": 5, "unit": "µM"}
    ]},
    {"smiles": "CC(C)(C)C(=O)OCOP(=O)(OCOC(=O)C(C)(C)C)Oc1ccccc1", "note": "[Example 3, bis(pivaloyloxymethyl) phenyl phosphate]", "values": [
      {"measurement": "stability in protonic solvents", "setting": "[2]; protonic solvents", "value": "stable in protonic solvents"},
      {"measurement": "resistance to both chemical and enzymatic hydrolysis", "setting": "[3]; compared with the protected composition of Example 1 (so in the source)", "value": "much more resistant"},
      {"measurement": "half-life", "setting": "[3]; pH 7.4, incubated with mouse plasma under the same conditions as in Example 2", "value": "~5", "unit": "h"}
    ]},
    {"smiles": "CC(=O)OCOP(=O)(OCOC(C)=O)Oc1ccccc1", "note": "[Example 2, bis(acetoxymethyl) phenyl phosphate]", "values": [
      {"measurement": "conversion in protonic solvents", "setting": "[2]; ethanol, water or 0.05M potassium phosphate buffer (pH 7.4)", "value": "slowly converted to mono(acetoxymethyl) phenyl phosphate"},
      {"measurement": "half-life", "setting": "[2]; ethanol, water or 0.05M potassium phosphate buffer (pH 7.4), read-out: half-life in protonic solvents", "value": "> 4", "unit": "h"},
      {"measurement": "stability in neutral aprotic solvents", "setting": "[2]; neutral aprotic solvents such as benzene, diethyl ether and ethyl acetate", "value": "stable"},
      {"measurement": "degradation in mouse plasma (first to mono(acetoxymethyl) analog, then to phenyl phosphate)", "setting": "[3]; [7]", "value": "rapidly degraded"},
      {"measurement": "half-life", "setting": "[3]; [7]", "value": "< 0.25", "unit": "h"},
      {"measurement": "half-life", "setting": "[4]", "value": "< 0.25", "unit": "h"},
      {"measurement": "degradation by hog liver carboxylate esterase (first to mono(acetoxymethyl) analog, then to phenyl phosphate)", "setting": "[5]; 65 micrograms per milliliter, 37° C., pH 7.4, 8 milligrams protein per milliliter", "value": "rapidly degraded"}
    ]},
    {"smiles": "CC(=O)O[C@H]1C[C@H](n2cc(F)c(=O)[nH]c2=O)O[C@@H]1COP(=O)(OCOC(=O)C(C)(C)C)OCOC(=O)C(C)(C)C", "note": "[Example 7]", "values": [
      {"measurement": "cleavage of acyloxymethyl groups and 3'-acetyl group in mouse plasma", "setting": "[3]", "value": "successively cleaved to give 5-FdUMP"},
      {"measurement": "activity against P388 leukemia", "setting": "[6]", "value": "active"},
      {"measurement": "concentration that prevented the growth of Chinese hamster ovary cells", "setting": "[1]", "value": 1, "unit": "µM"},
      {"measurement": "cleavage of acyloxymethyl groups and 3'-acetyl group with hog liver carboxylate esterase", "setting": "[5]", "value": "successively cleaved to give 5-FdUMP"}
    ]},
    {"smiles": "CC(C)(C)C(=O)OC1CCOP(=O)(Oc2ccccc2)O1", "note": "(stereo not shown) [Example 1]", "values": [
      {"measurement": "stability in organic solvents or aqueous buffers", "setting": "[2]; organic solvents or aqueous buffers", "value": "stable"},
      {"measurement": "conversion to phenyl phosphate with strong acids or bases", "setting": "[2]; strong acids or bases", "value": "quantitatively converted to phenyl phosphate"},
      {"measurement": "reversion to phenyl phosphate in mouse plasma", "setting": "[3]; 37° C., 30 minutes, mouse plasma", "value": "reverted to phenyl phosphate"}
    ]}
  ]
}
